Experimental data taken from patent publication US12336981B2, “Compounds and compositions for the inhibition of NAMPT” (Valo Health, Inc., priority 2010, dated 2025).
Read-outs that look alike come from different tables or passages of the source.

Assays:
A2780 cells = experiment: In-vitro cell proliferation assay (SRB), A2780 cells; format: cell-based; details: Homo sapiens, A2780, 72 h, A2780 cells, 72 hours, read-out: A2780 IC50
Outline: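 Viable cells measured by SRB staining after 6% TCA fixation, absorbance 570 nm. Media-only background subtracted; % inhibition derived at two compound concentrations.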

NAMPT = target: T1, NAMPT (Homo sapiens, UniProt P43490); experiment: Biochemical inhibition assay: NAMPT enzymatic reaction, NMN quantified by mass spectrometry; details: read-out: Biochem IC50
T1 construct: His tag; host or cells: E. coli
Outline: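 Inhibition of E. coli-expressed His-tagged human NAMPT, measured as NMN formation by mass spectrometry after a 30 min room-temperature reaction containing 1 μM NAM, 100 μM PRPP and 2.5 mM ATP.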

T1 sequence (P43490 whole entry): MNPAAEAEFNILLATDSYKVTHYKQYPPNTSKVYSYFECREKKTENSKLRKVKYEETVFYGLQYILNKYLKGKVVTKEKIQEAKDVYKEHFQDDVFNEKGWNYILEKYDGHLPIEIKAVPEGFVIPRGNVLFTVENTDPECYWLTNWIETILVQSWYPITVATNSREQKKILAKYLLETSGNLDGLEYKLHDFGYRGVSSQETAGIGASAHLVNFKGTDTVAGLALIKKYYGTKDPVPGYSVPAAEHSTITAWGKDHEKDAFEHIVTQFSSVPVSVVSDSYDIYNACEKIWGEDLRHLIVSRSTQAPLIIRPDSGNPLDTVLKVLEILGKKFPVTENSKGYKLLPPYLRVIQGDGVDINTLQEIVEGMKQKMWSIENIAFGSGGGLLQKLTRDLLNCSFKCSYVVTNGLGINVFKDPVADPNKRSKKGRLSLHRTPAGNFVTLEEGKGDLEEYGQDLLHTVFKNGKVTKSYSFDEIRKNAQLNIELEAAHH

| SMILES | IC50 (A2780 cells; SRB) | IC50 (NAMPT; NAMPT enzymatic assay) | IC50 (NAMPT; NAMPT enzymatic reaction) | IC50 (A2780 cells; SRB assay) |
| --- | --- | --- | --- | --- |
| COc1cc(C)cc(S(=O)(=O)c2ccc(CNC(=O)c3cc4cnccc4[nH]3)cc2)c1OC [N-({4-[(2,3-dimethoxy-5-methylbenzene)sulfonyl]phenyl}methyl)-1H-pyrrolo[3,2-c]pyridine-2-carboxamide] | 2 nM | 10 nM |  |  |
| O=C(NCc1ccc(S(=O)(=O)c2cncc(N3CCCC3)c2)cc1)c1cc2cnccc2[nH]1 [N-({4-[5-(pyrrolidin-1-yl)pyridine-3-sulfonyl]phenyl}methyl)-1H-pyrrolo[3,2-c]pyridine-2-carboxamide] | 2 nM | 13.9 nM |  |  |
| CCCOc1ccc(S(=O)(=O)c2ccc(CNC(=O)c3ccc4nccn4c3)cc2)cc1Cl | 6 nM |  | 6.5 nM |  |
| CCOc1cccc(S(=O)(=O)c2ccc(CNC(=O)c3cc4cnccc4[nH]3)cc2)c1F | 11.6 nM |  | 31.2 nM |  |
| Cc1cc(F)cc(S(=O)(=O)c2ccc(CNC(=O)c3cc4ccncc4s3)cc2)c1 | 0.6 nM |  | 1 nM |  |
| O=C(NCc1ccc(S(=O)(=O)c2ccc3c(c2)OCO3)cc1)c1cc2cnccc2[nH]1 [N-{[4-(2H-1,3-benzodioxole-5-sulfonyl)phenyl]methyl}-1H-pyrrolo[3,2-c]pyridine-2-carboxamide] |  |  | 8 nM | 7 nM |
| COc1ccc(S(=O)(=O)c2ccc(CNC(=O)c3cnc4[nH]ncc4c3)cc2)cc1F [N-({4-[(3-fluoro-4-methoxybenzene)sulfonyl]phenyl}methyl)-1H-pyrazolo[3,4-b]pyridine-5-carboxamide] | 6 nM |  | 43 nM |  |
| COc1ccc(C)cc1S(=O)(=O)c1ccc(CNC(=O)c2cnc3nccn3c2)cc1 | 7.2 nM |  | 3.9 nM |  |
| COc1ccc(S(=O)(=O)c2ccc(CNC(=O)c3cc4ccncc4s3)cc2)c(OC)c1 [N-({4-[(2,4-dimethoxybenzene)sulfonyl]phenyl}methyl)thieno[2,3-c]pyridine-2-carboxamide] | 1.6 nM |  | 4.5 nM |  |
| O=C(NCc1ccc(S(=O)(=O)c2ccc(-n3cccn3)cc2F)cc1)c1cc2ccncc2s1 [N-[(4-{[2-fluoro-4-(1H-pyrazol-1-yl)benzene]sulfonyl}phenyl)methyl]thieno[2,3-c]pyridine-2-carboxamide] |  |  | 6 nM | 8 nM |
| COc1ccc(S(=O)(=O)c2ccc(CNC(=O)c3cc4ccncc4o3)cc2)c(C(F)(F)F)c1 | 15.2 nM | 14.6 nM |  |  |
| O=C(NCc1ccc(S(=O)(=O)c2cc(F)cc(Cl)c2)cc1)c1ccc2nccn2c1 | 0.3 nM |  | 3.9 nM |  |
| O=C(NCc1ccc(S(=O)(=O)c2cccc(N3CCOCC3)c2)cc1)c1cnc2nccn2c1 | 13.5 nM | 2.7 nM |  |  |
| Cc1cc(Cl)cnc1S(=O)(=O)c1ccc(CNC(=O)c2ccc3nccn3c2)cc1 [N-{[4-(5-chloro-3-methylpyridine-2-sulfonyl)phenyl]methyl}imidazo[1,2-a]pyridine-6-carboxamide] | 8 nM | 18.8 nM |  |  |
| COc1cc(-n2cccn2)ccc1S(=O)(=O)c1ccc(CNC(=O)c2cc3ccncc3o2)cc1 | 6 nM | 6.5 nM |  |  |
| O=C(NCc1ccc(S(=O)(=O)c2ccc(-c3ccccc3)cc2)cc1)c1cnc2[nH]ncc2c1 | 11.7 nM |  | 32 nM |  |
| O=C(NCc1ccc(S(=O)(=O)c2ccc(Cl)c(C(F)(F)F)c2)cc1)c1cc2cnccc2[nH]1 [N-[(4-{[4-chloro-3-(trifluoromethyl)benzene]sulfonyl}phenyl)methyl]-1H-pyrrolo[3,2-c]pyridine-2-carboxamide] |  |  | 8 nM | 5 nM |
| Cc1c(F)cccc1S(=O)(=O)c1ccc(CNC(=O)c2cc3cnccc3[nH]2)cc1 | 13.2 nM |  | 57.6 nM |  |
| CCOc1ccc(S(=O)(=O)c2ccc(CNC(=O)c3cnc4[nH]ncc4c3)cc2)cc1F | 5.2 nM |  | 9.5 nM |  |
| CC(C)COc1ccc(S(=O)(=O)c2ccc(CNC(=O)c3cc4cnccc4[nH]3)cc2)cc1 | 9.4 nM | 12.7 nM |  |  |
| COCc1cccc(S(=O)(=O)c2ccc(CNC(=O)c3cc4ccncc4s3)cc2)c1 | 6.7 nM | 2.6 nM |  |  |
